Tests used:
Type in all cases: biochemical
[1] = target: PKR R510Q (Homo sapiens, UniProt P30613, R510Q); assay: PKR R510Q Single Point Percent Activation Assay; conditions: compound at 1 μM; read-out: % Act. R510Q
Protocol: PKR R510Q Single Point Percent Activation Assay
(§1) A compound described herein was diluted with DMSO and tested at 1 μM concentration. The enzyme was diluted in 1× Buffer: (100 mM KCl, 50 mM Tris 7.5, 5 mM MgCl2, 1 mM DTT, 0.03% BSA). 2 μL of compound solution was first added into wells, and then 180 μL of enzyme solution was added. Assays were assembled except for ADP, and plates were stored for 60 minutes at RT. 20 μL ADP was added to start the assay and assay output was evaluated using OD340 at SpectraMax. The assay was run at room temperature.
PKR R510Q (40 ng/well), Tris pH 7.5 (50 mM), KCl (100 mM), MgCl2 (5 mM), ADP (0.2 mM), PEP (0.11 mM), NADH (180 μM), LDH (0.5 units, Sigma 59023), DTT (1 mM) and BSA (0.03%).

[2] = target: PKR R532W (Homo sapiens, UniProt P30613, R532W); assay: PKR R532W Single Point Percent Activation Assay; conditions: compound at 1 μM; read-out: % Act. R532W
Sequence of PKR R532W (P30613 whole entry R532W): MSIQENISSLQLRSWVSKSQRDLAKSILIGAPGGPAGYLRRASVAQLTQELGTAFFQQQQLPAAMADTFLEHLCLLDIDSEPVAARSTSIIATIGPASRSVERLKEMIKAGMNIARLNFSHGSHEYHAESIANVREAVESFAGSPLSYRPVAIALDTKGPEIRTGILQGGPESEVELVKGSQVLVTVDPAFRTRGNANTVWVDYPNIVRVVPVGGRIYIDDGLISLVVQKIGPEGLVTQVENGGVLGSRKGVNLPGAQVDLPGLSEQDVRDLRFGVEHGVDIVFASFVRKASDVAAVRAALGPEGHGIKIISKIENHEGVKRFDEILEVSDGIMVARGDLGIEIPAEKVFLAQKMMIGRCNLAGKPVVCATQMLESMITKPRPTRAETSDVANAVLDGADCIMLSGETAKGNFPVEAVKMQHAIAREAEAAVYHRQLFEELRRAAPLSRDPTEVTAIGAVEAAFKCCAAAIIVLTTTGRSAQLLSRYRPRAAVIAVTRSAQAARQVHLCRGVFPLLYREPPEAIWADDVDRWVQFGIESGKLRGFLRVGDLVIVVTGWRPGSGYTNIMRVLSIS
Protocol: PKR R532W Single Point Percent Activation Assay
as §1
PKR R532W (100 ng/well), Tris pH 7.5 (50 mM), KCl (100 mM), MgCl2 (5 mM), ADP (0.36 mM), PEP (0.1 mM), NADH (180 μM), LDH (0.5 units, Sigma 59023), DTT (1 mM) and BSA (0.03%).

[3] = target: PKR T384W (Homo sapiens, UniProt P30613); assay: PKR T384W Single Point Percent Activation Assay; conditions: compound at 1 μM
Sequence of PKR T384W (P30613 whole entry T384M): as the sequence (P30613 whole entry R532W) above, with T384M, W532R counted along it
Protocol: PKR T384W Single Point Percent Activation Assay
as §1, with “180 μL enzyme solution” for “180 μL of enzyme solution”
PKR T384W soluble (300 ng/well), Tris pH 7.5 (50 mM), KCl (100 mM), MgCl2 (5 mM), ADP (0.08 mM), PEP (0.23 mM), NADH (180 μM), LDH (0.5 units, Sigma 59023), DTT (1 mM) and BSA (0.03%).

[4] = target: PKR wt (Homo sapiens, UniProt P30613); assay: PKR WT Single Point Percent Activation Assay; conditions: compound at 1 μM
Sequence of PKR wt (P30613 whole entry): as the sequence (P30613 whole entry R532W) above, with W532R counted along it
Protocol: PKR WT Single Point Percent Activation Assay
as §1
PKR wt (100 ng/well), Tris pH 7.5 (50 mM), KCl (100 mM), MgCl2 (5 mM), ADP (0.48 mM), PEP (0.15 mM), NADH (180 μM), LDH (0.5 units, Sigma 59023), DTT (1 mM) and BSA (0.03%).

Sequence of PKR R510Q (P30613 whole entry R510Q): as the sequence (P30613 whole entry R532W) above, with R510Q, W532R counted along it

Compound	activation at 1 µM [1]	activation at 1 µM [2]	% Act. T384W [3]	activation at 1 µM [4]
O=C(OC1CN(C(=O)c2ccc(NS(=O)(=O)c3cccc4cccnc34)cc2)C1)c1ccccn1	101 to 500%	1 to 100%	B (a % activation at 1 μM of from 101 to 500)	101 to 500%
O=C(c1ccc(NS(=O)(=O)c2cccc3cccnc23)cc1)N1CC(NCc2ccccc2)C1	101 to 500%	101 to 500%	B (a % activation at 1 μM of from 101 to 500)	101 to 500%
COc1ncccc1NC1CN(C(=O)c2ccc(NS(=O)(=O)c3cccc4cccnc34)c(C)c2)C1	101 to 500%	101 to 500%	B (a % activation at 1 μM of from 101 to 500)	101 to 500%
COc1cccnc1NC1CN(C(=O)c2ccc(NS(=O)(=O)c3cccc4cccnc34)c(C)c2)C1	101 to 500%	101 to 500%	B (a % activation at 1 μM of from 101 to 500)	101 to 500%
COc1ccccc1OC1CN(C(=O)c2ccc(NS(=O)(=O)c3cccc4cccnc34)cc2OC)C1	1 to 100%	101 to 500%	B (a % activation at 1 μM of from 101 to 500)	101 to 500%
Cc1cc(C(=O)N2CC(Nc3ccncc3)C2)ccc1NS(=O)(=O)c1cccc2cccnc12	1 to 100%	1 to 100%	A (a % activation at 1 μM of from 1 to 100)	101 to 500%
COc1ccncc1NC1CN(C(=O)c2ccc(NS(=O)(=O)c3cccc4cccnc34)c(C)c2)C1	1 to 100%	1 to 100%	B (a % activation at 1 μM of from 101 to 500)	101 to 500%
COc1ccccc1OC1CN(C(=O)c2ccc(NS(=O)(=O)c3cccc4cccnc34)c(F)c2)C1	1 to 100%	101 to 500%	B (a % activation at 1 μM of from 101 to 500)	101 to 500%
Cc1cc(C(=O)N2CC(OC(=O)Nc3ccccn3)C2)ccc1NS(=O)(=O)c1cccc2cccnc12	101 to 500%	101 to 500%	A (a % activation at 1 μM of from 1 to 100)	1 to 100%
COc1cc(C(=O)N2CC(OC(=O)Nc3ccccn3)C2)ccc1NS(=O)(=O)c1cccc2cccnc12	101 to 500%	1 to 100%	A (a % activation at 1 μM of from 1 to 100)	1 to 100%
COc1cc(NS(=O)(=O)c2cccc3cccnc23)ccc1C(=O)N1CC(OC(=O)Nc2ccccn2)C1	101 to 500%	101 to 500%	B (a % activation at 1 μM of from 101 to 500)	101 to 500%
COc1cc(C(=O)N2CC(Oc3ccccc3OC)C2)ccc1NS(=O)(=O)c1cccc2cccnc12	101 to 500%	101 to 500%	B (a % activation at 1 μM of from 101 to 500)	101 to 500%
O=C(Nc1ccccn1)NC1CN(C(=O)c2ccc(NS(=O)(=O)c3cccc4cccnc34)cc2)C1	101 to 500%	101 to 500%	B (a % activation at 1 μM of from 101 to 500)	101 to 500%
O=C(Nc1ccccn1)OC1CN(C(=O)c2ccc(NS(=O)(=O)c3cccc4cccnc34)c(F)c2)C1	101 to 500%	101 to 500%	B (a % activation at 1 μM of from 101 to 500)	101 to 500%
CC(C)NC(=O)NC1CN(C(=O)c2ccc(NS(=O)(=O)c3cccc4cccnc34)cc2)C1	101 to 500%	101 to 500%	B (a % activation at 1 μM of from 101 to 500)	101 to 500%
Cc1cc(C(=O)N2CC(NC(=O)NC(C)C)C2)ccc1NS(=O)(=O)c1cccc2cccnc12	101 to 500%	101 to 500%	B (a % activation at 1 μM of from 101 to 500)	101 to 500%

— US9388164B2, “Methods of using pyruvate kinase activators” (AGIOS PHARMACEUTICALS, INC, priority 2011, dated 2016)
